Assay results as given in patent US20150374861A1, “KIT FOR TUMOR IMAGING” (THOMAS JEFFERSON UNVERSITY, priority 2013, published 2015).
Read-outs that look alike come from different tables or passages of the source.

Legend:
[1] = literature, Ga-67 Citrate 10 mCi, Cu-64 ATSM 25 mCi, cited from earlier work; for Effective Dose: FDG-PET/CT F-18 10 mCi, Sestamibi Tc-99m 30 mCi, FDG-PET/PM w/o CT F-18 10 mCi
[2] = system: primary tumor site and metastatic lymph nodes; assay: Whole body PET/CT imaging of breast cancer patients; assay type: in vivo, human; conditions: six PET/CT patients: six primary lesions, four involved lymph nodes
Procedure: Caucasian, Hispanic, African American or Asian non-pregnant women, eighteen years of age or older, with newly diagnosed, histologically proven BC were enrolled. Image guided percutaneous biopsy was performed two to six weeks prior to this imaging procedure. Each patient signed the informed consent form. For this feasibility study, a biostatistician determined that six patients be studied with PET and thirteen with PEM. This determination was based on the assumption that Cu-64-TP3805 will detect 80% of the lesions and there will be 87% power to conclude the use of this agent to diagnosis BC.
Each patient fasted for six hours prior to F-18-FDG injection. Before F-18-FDG injection, blood sugar was monitored. Patients with sugar levels below 250 mg/DL were enrolled. […]
For Cu-64-TP3805 imaging, patients neither fasted nor were blood sugar levels determined. […]
All images were read by two board certified nuclear medicine physicians and a board certified breast imaging physician. […] For six patients with PET/CT, standardized uptake values (SUV) were calculated for the primary tumor site and metastatic lymph nodes, and compared for the respective radiotracers. Metabolic tumor volume was calculated using 50% isocontour geometry method for comparison, as it is relatively a better parameter, as compared to SUV.

Structure (SMILES)	Effective Dose [1]	Liver Dose [1]	detection of lesions [2]	Effective Dose ([1]; listed as FDG-PET/CT)	Effective Dose ([1]; listed as FDG-PET/PM w/o CT)
CNC1=NN=C(C)C(C)=NN=C(NC)[S][64Cu][S]1 [Cu-64 ATSM]	33.3 mSv	361 mSv			
OC[C@H]1O[C@@H](O)[C@H]([18F])[C@@H](O)[C@@H]1O [F-18-FDG]			ten lesions detected	31.9 mSv	2.8 mSv
O=C([O-])CC(O)(CC(=O)[O-])C(=O)[O-].[Ga+3] [Ga-67 Citrate]	39 mSv	69 mSv			
